Assay results reported in patent US11981658B2, “Substituted aminopyridine compounds as EGFR inhibitors” (YUHAN CORPORATION, priority 2021, dated 2024).
Read-outs that look alike come from different tables or passages of the source.

Tests used:
[1] = target: EGFR Del19/T790M/C797S (Homo sapiens, UniProt P00533, C797S/DEL746-750/T790M); experiment: Biochemical EGFR kinase inhibition assay (Lance Ultra TR-FRET), triple mutant del19/T790M/C797S
In short: (§1)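 Kinase activity is measured by TR-FRET phosphopeptide detection. Compounds span 0.003 μM to 10 μM; the 1 h reaction at room temperature is quenched with EDTA, then labelled antibody (2 nM) is incubated 60 min before reading.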

[2] = target: EGFR Del19/C797S (Homo sapiens, UniProt P00533, C797S/DEL746-750); experiment: Biochemical EGFR kinase inhibition assay (Lance Ultra TR-FRET), double mutant del19/C797S
In short: as §1

[3] = target: EGFR wildtype (WT) (Homo sapiens, UniProt P00533); experiment: Biochemical EGFR kinase inhibition assay (Lance Ultra TR-FRET), wildtype
In short: as §1

[4] = target: EGFR L858R/C797S (Homo sapiens, UniProt P00533, C797S/L858R); experiment: Biochemical EGFR kinase inhibition assay (Lance Ultra TR-FRET), double mutant L858R/C797S
In short: as §1

[5] = target: EGFR L858R/T790M/C797S (Homo sapiens, UniProt P00533, C797S/L858R/T790M); experiment: Biochemical EGFR kinase inhibition assay (Lance Ultra TR-FRET), triple mutant L858R/T790M/C797S
In short: as §1

[6] = IC50 Del19/T790M/C797S (nM), 100 μM ATP
[7] = Km ATP, read-out: IC50 Del19/T790M/C797S (nM) Km ATP
[8] = IC50 Del19/C797S (nM), 100 μM ATP
[9] = Km ATP, read-out: IC50 Del19/C797S (nM) Km ATP
[10] = Km ATP, read-out: IC50 WT (nM) Km ATP
[11] = IC50 L858R/C797S (nM), 100 μM ATP
[12] = Km ATP, read-out: IC50 L858R/C797S (nM) Km ATP
[13] = IC50 L858R/T790M/C797S (nM), 100 μM ATP
[14] = Km ATP, read-out: IC50 L858R/T790M/C797S (nM) Km ATP

Sequence of EGFR L858R/T790M/C797S (P00533 25-1210 T790M/C797S/L858R): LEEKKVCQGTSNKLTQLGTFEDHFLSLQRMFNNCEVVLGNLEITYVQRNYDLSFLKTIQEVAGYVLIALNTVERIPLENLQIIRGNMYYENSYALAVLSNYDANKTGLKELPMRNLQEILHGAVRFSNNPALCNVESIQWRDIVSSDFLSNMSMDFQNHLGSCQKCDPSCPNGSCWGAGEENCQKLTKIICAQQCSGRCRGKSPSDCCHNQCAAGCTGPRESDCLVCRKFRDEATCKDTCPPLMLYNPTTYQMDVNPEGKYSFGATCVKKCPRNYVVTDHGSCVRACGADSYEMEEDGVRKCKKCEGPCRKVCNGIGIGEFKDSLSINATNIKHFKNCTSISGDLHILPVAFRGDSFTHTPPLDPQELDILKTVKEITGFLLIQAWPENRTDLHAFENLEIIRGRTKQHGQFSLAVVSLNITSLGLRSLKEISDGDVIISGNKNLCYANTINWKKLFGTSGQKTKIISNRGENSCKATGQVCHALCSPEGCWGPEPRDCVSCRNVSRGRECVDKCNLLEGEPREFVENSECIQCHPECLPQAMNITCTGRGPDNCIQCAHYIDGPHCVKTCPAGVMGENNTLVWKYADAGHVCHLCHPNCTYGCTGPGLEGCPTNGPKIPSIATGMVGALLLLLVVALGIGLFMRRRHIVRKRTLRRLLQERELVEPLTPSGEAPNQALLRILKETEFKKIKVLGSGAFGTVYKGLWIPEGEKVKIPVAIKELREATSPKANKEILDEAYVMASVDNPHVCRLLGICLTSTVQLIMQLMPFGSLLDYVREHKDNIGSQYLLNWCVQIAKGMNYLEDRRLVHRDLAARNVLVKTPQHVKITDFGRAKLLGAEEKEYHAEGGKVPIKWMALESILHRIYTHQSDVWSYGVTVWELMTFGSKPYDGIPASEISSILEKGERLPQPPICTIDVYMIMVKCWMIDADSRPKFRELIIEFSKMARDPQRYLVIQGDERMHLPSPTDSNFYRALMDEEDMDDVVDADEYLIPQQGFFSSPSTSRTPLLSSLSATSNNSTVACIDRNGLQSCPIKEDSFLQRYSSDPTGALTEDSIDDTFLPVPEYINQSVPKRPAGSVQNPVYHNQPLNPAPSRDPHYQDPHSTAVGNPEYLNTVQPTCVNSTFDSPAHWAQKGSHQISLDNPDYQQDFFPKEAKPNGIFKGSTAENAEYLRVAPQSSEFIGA
Sequence of EGFR Del19/T790M/C797S (P00533 with tags, fused parts or gaps DEL746-750/T790M/C797S): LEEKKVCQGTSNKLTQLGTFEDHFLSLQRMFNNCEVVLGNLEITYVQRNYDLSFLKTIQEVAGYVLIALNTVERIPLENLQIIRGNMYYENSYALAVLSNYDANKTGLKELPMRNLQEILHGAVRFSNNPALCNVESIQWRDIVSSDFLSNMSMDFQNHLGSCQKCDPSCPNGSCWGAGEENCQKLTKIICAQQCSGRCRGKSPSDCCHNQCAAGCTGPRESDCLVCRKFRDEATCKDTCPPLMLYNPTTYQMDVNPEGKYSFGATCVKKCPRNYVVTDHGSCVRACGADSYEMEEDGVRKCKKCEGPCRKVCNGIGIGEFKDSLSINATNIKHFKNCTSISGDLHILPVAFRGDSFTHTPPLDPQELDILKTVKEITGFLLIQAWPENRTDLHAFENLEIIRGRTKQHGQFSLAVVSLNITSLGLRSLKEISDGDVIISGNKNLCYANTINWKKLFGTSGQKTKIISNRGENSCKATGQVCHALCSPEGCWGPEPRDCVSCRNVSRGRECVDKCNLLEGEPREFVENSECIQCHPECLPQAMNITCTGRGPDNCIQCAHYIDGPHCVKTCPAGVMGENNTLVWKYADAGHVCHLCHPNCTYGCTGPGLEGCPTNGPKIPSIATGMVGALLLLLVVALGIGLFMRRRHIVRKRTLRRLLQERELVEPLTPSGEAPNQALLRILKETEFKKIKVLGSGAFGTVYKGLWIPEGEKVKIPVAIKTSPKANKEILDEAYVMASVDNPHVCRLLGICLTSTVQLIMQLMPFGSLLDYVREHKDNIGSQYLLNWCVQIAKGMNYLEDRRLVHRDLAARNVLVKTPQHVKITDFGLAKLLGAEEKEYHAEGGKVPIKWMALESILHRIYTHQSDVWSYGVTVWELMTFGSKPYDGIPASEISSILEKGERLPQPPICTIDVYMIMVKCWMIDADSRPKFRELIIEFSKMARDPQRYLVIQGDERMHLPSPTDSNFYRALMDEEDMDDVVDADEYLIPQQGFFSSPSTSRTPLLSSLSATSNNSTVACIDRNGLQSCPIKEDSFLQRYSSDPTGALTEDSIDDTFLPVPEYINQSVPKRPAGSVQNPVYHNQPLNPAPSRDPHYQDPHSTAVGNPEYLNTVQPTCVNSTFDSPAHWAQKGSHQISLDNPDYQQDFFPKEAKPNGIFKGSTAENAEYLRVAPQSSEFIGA
Sequence of EGFR L858R/C797S (P00533 25-1210 C797S/L858R): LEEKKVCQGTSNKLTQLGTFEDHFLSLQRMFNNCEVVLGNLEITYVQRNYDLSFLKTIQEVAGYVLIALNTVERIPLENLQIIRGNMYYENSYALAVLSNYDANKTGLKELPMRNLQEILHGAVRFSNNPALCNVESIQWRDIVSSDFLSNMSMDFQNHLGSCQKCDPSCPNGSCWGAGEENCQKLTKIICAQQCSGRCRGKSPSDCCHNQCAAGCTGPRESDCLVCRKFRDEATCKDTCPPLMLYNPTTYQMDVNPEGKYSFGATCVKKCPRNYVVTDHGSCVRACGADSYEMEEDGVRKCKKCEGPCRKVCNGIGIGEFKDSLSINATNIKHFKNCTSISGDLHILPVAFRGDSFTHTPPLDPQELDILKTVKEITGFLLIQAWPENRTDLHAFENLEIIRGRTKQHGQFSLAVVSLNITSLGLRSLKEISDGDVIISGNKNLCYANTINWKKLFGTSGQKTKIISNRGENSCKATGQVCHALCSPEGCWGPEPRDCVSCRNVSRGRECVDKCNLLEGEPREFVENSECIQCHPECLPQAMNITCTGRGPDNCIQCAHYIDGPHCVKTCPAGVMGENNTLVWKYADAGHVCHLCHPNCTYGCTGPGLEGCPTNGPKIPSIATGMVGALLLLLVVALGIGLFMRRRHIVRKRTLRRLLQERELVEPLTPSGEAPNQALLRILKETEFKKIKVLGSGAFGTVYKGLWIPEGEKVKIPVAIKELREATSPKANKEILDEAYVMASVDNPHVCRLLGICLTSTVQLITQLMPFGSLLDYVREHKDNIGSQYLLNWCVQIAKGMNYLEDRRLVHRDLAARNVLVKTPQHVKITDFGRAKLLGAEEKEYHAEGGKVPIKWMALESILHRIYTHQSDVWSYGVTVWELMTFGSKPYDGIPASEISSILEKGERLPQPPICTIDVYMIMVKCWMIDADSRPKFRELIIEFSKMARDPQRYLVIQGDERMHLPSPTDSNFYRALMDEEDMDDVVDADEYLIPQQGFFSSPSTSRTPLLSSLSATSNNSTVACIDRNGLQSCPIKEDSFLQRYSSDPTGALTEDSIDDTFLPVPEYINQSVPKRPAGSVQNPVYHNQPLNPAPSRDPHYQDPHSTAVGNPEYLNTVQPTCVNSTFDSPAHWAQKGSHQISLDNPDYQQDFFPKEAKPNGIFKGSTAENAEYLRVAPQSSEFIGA
Sequence of EGFR Del19/C797S (P00533 with tags, fused parts or gaps DEL746-750/C797S): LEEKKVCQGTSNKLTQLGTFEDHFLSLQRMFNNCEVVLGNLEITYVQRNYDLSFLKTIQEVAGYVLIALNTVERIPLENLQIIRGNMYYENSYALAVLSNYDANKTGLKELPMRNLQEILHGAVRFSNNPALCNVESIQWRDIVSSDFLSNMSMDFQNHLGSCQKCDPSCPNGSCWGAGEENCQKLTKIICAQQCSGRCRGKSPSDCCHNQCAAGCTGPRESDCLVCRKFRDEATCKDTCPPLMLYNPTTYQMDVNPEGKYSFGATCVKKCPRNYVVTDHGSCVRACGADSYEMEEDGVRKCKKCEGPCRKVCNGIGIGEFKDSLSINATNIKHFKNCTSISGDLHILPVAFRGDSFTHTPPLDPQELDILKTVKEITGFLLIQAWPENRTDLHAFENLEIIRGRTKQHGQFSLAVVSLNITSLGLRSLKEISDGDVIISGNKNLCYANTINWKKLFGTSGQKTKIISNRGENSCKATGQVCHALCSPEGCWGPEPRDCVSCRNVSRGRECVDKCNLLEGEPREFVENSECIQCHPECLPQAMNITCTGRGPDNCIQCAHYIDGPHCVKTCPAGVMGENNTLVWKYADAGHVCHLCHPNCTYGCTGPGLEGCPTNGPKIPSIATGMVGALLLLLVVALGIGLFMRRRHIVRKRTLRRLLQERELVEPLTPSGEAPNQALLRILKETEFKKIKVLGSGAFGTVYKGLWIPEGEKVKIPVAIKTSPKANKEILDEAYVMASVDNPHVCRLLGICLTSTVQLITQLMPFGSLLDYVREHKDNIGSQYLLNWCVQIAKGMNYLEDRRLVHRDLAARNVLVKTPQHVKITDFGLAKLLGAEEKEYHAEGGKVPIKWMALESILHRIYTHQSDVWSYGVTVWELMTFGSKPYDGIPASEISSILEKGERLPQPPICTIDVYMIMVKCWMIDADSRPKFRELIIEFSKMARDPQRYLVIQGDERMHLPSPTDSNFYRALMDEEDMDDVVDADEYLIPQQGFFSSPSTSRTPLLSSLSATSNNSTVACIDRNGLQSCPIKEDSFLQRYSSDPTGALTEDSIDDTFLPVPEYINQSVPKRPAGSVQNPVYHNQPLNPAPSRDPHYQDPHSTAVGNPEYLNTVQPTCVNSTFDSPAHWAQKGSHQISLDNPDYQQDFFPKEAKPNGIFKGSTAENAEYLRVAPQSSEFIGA

| IC50 [1, 6] | IC50 [1, 7] | IC50 [2, 8] | IC50 [2, 9] | IC50 ([3]; IC50 WT (nM), 100 μM ATP) | IC50 [3, 10] | IC50 [4, 11] | IC50 [4, 12] | IC50 [5, 13] | IC50 [5, 14] | SMILES |
| --- | --- | --- | --- | --- | --- | --- | --- | --- | --- | --- |
| 0.5 nM | 0.5 nM | 9.5 nM | 5.4 nM | > 10000 nM | 17.4 nM | 13.7 nM | 2.6 nM | 1.7 nM | 0.6 nM | CC(=O)N1CCC(n2cc(C#Cc3cnc(Nc4ccnc(-c5cnn(S(=O)(=O)C6CC6)c5)n4)cc3N3CCCC(O)C3)cn2)CC1 (centres unmarked) [Example 114, 1-(4-(4-((6-((2-(1-(Cyclopropylsulfonyl)-1H-pyrazol-4-yl)pyrimidin-4-yl)amino)-4-(3-hydroxypiperidin-1-yl)pyridin-3-yl)ethynyl)-1H-pyrazol-1-yl)piperidin-1-yl)ethan-1-one] |
| 1.2 nM | 0.9 nM | 8.1 nM | 5.4 nM | > 10000 nM | 19.6 nM | 15.6 nM | 2.9 nM | 2.3 nM | 0.9 nM | CC(=O)N1CCC(n2cc(C#Cc3cnc(Nc4ccnc(-c5cnn(S(=O)(=O)C6CC6)c5)n4)cc3N3CCCC(CO)C3)cn2)CC1 (centres unmarked) [Example 115, 1-(4-(4-((6-((2-(1-(Cyclopropylsulfonyl)-1H-pyrazol-4-yl)pyrimidin-4-yl)amino)-4-(3-(hydroxymethyl)piperidin-1-yl)pyridin-3-yl)ethynyl)-1H-pyrazol-1-yl)piperidin-1-yl)ethan-1-one] |
| 0.4 nM | 0.3 nM | 0.6 nM | 0.3 nM | 143 nM | 1 nM | 1 nM | 0.2 nM | 0.3 nM | 0.2 nM | CN(C)CCn1cc(C#Cc2cnc(Nc3ccnc(-c4cnn(S(=O)(=O)C5CC5)c4)n3)cc2N2CCC(C)(CO)CC2)cn1 [Example 116, (1-(2-((2-(1-(Cyclopropylsulfonyl)-1H-pyrazol-4-yl)pyrimidin-4-yl)amino)-5-((1-(2-(dimethylamino)ethyl)-1H-pyrazol-4-yl)ethynyl)pyridin-4-yl)-4-methylpiperidin-4-yl)methanol] |
| 0.4 nM | 0.3 nM | 0.7 nM | 0.4 nM | 1020 nM | 3.7 nM | 3.4 nM | 0.3 nM | 0.3 nM | 0.2 nM | CN(C)CCn1cc(C#Cc2cnc(Nc3ccnc(-c4cnn(S(=O)(=O)C5CC5)c4)n3)cc2N2CCC(F)(CO)CC2)cn1 [Example 117, (1-(2-((2-(1-(Cyclopropylsulfonyl)-1H-pyrazol-4-yl)pyrimidin-4-yl)amino)-5-((1-(2-(dimethylamino)ethyl)-1H-pyrazol-4-yl)ethynyl)pyridin-4-yl)-4-fluoropiperidin-4-yl)methanol] |
| 0.6 nM | 0.5 nM | 0.8 nM | 0.7 nM | 2690 nM | 10.2 nM | 8.5 nM | 0.6 nM | 0.5 nM | 0.2 nM | CN(C)CCn1cc(C#Cc2cnc(Nc3ccnc(-c4cnn(S(=O)(=O)C5CC5)c4)n3)cc2N2CCCC(CO)C2)cn1 (centres unmarked) [Example 118, (1-(2-((2-(1-(Cyclopropylsulfonyl)-1H-pyrazol-4-yl)pyrimidin-4-yl)amino)-5-((1-(2-(dimethylamino)ethyl)-1H-pyrazol-4-yl)ethynyl)pyridin-4-yl)piperidin-3-yl)methanol] |
| 0.7 nM | 0.7 nM | 0.8 nM | 0.5 nM | 212 nM | 1.6 nM | 1.3 nM | 0.3 nM | 0.5 nM | 0.3 nM | CN(C)CCCn1cc(C#Cc2cnc(Nc3ccnc(-c4cnn(S(=O)(=O)C5CC5)c4)n3)cc2N2CCC(C)(CO)CC2)cn1 [Example 120, (1-(2-((2-(1-(Cyclopropylsulfonyl)-1H-pyrazol-4-yl)pyrimidin-4-yl)amino)-5-((1-(3-(dimethylamino)propyl)-1H-pyrazol-4-yl)ethynyl)pyridin-4-yl)-4-methylpiperidin-4-yl)methanol] |
| 0.3 nM | 0.3 nM | 0.5 nM | 0.3 nM | 783 nM | 3.1 nM | 4.1 nM | 0.3 nM | 0.3 nM | 0.1 nM | CN(C)CCCn1cc(C#Cc2cnc(Nc3ccnc(-c4cnn(S(=O)(=O)C5CC5)c4)n3)cc2N2CCC(F)(CO)CC2)cn1 [Example 121, (1-(2-((2-(1-(Cyclopropylsulfonyl)-1H-pyrazol-4-yl)pyrimidin-4-yl)amino)-5-((1-(3-(dimethylamino)propyl)-1H-pyrazol-4-yl)ethynyl)pyridin-4-yl)-4-fluoropiperidin-4-yl)methanol] |
| 0.5 nM | 0.4 nM | 0.8 nM | 0.6 nM | 2780 nM | 7.8 nM | 11.8 nM | 0.5 nM | 0.5 nM | 0.2 nM | CN(C)CCCn1cc(C#Cc2cnc(Nc3ccnc(-c4cnn(S(=O)(=O)C5CC5)c4)n3)cc2N2CCCC(CO)C2)cn1 (centres unmarked) [Example 122, (1-(2-((2-(1-(Cyclopropylsulfonyl)-1H-pyrazol-4-yl)pyrimidin-4-yl)amino)-5-((1-(3-(dimethylamino)propyl)-1H-pyrazol-4-yl)ethynyl)pyridin-4-yl)piperidin-3-yl)methanol] |
| 0.4 nM | 0.4 nM | 0.6 nM | 0.3 nM | 1080 nM | 3.6 nM | 4.3 nM | 0.3 nM | 0.4 nM | 0.1 nM | CN(C)CCCn1cc(C#Cc2cnc(Nc3ccnc(-c4cnn(S(=O)(=O)C5CC5)c4)n3)cc2N[C@H]2CC[C@@H](O)CC2)cn1 [Example 123, (1s,4s)-4-((2-((2-(1-(Cyclopropylsulfonyl)-1H-pyrazol-4-yl)pyrimidin-4-yl)amino)-5-((1-(3-(dimethylamino)propyl)-1H-pyrazol-4-yl)ethynyl)pyridin-4-yl)amino)cyclohexan-1-ol] |
| 3 nM |  | 26.3 nM |  | > 10000 nM |  | 154 nM |  | 2.6 nM |  | Cn1cc(C#Cc2cnc(Nc3ccnc(-c4cnn(S(=O)(=O)C5CC5)c4)n3)cc2N2CCC(NCC3CC3)CC2)cn1 [Example 124, N-(4-(4-((Cyclopropylmethyl)amino)piperidin-1-yl)-5-((1-methyl-1H-pyrazol-4-yl)ethynyl)pyridin-2-yl)-2-(1-(cyclopropylsulfonyl)-1H-pyrazol-4-yl)pyrimidin-4-amine] |
| 5.6 nM |  | 34.2 nM |  | > 10000 nM |  | 330 nM |  | 5.6 nM |  | CC(C)CCNC1CCN(c2cc(Nc3ccnc(-c4cnn(S(=O)(=O)C5CC5)c4)n3)ncc2C#Cc2cnn(C)c2)CC1 [Example 125, 2-(1-(Cyclopropylsulfonyl)-1H-pyrazol-4-yl)-N-(4-(4-(isopentylamino)piperidin-1-yl)-5-((1-methyl-1H-pyrazol-4-yl)ethynyl)pyridin-2-yl)pyrimidin-4-amine] |
| 1.7 nM | 0.6 nM | 1.6 nM | 1.4 nM | > 10000 nM | 35 nM | 11.5 nM | 1.8 nM | 0.9 nM | 0.3 nM | Cn1cc(C#Cc2cnc(Nc3ccnc(-c4cnn(S(=O)(=O)C5CC5)c4)n3)cc2N2CCC(NCC(F)F)CC2)cn1 [Example 126, 2-(1-(Cyclopropylsulfonyl)-1H-pyrazol-4-yl)-N-(4-(4-((2,2-difluoroethyl)amino)piperidin-1-yl)-5-((1-methyl-1H-pyrazol-4-yl)ethynyl)pyridin-2-yl)pyrimidin-4-amine] |
| 2.8 nM |  | 6.9 nM |  | > 10000 nM |  | 45.7 nM |  | 1.8 nM |  | Cn1cc(C#Cc2cnc(Nc3ccnc(-c4cnn(S(=O)(=O)C5CC5)c4)n3)cc2N2CCC(NCCC(F)(F)F)CC2)cn1 [Example 127, 2-(1-(Cyclopropylsulfonyl)-1H-pyrazol-4-yl)-N-(5-((1-methyl-1H-pyrazol-4-yl)ethynyl)-4-(4-((3,3,3-trifluoropropyl)amino)piperidin-1-yl)pyridin-2-yl)pyrimidin-4-amine] |
| 7.1 nM |  | 29.5 nM |  | > 10000 nM |  | 73 nM |  | 4.8 nM |  | Cn1cc(C#Cc2cnc(Nc3ccnc(-c4cnn(S(=O)(=O)C5CC5)c4)n3)cc2N2CCC(N3CC(F)(F)C3)CC2)cn1 [Example 128, 2-(1-(Cyclopropylsulfonyl)-1H-pyrazol-4-yl)-N-(4-(4-(3,3-difluoroazetidin-1-yl)piperidin-1-yl)-5-((1-methyl-1H-pyrazol-4-yl)ethynyl)pyridin-2-yl)pyrimidin-4-amine] |
| 0.5 nM |  | 4.4 nM |  | > 10000 nM |  | 23.8 nM |  | 0.8 nM |  | Cn1cc(C#Cc2cnc(Nc3ccnc(-c4cnn(S(=O)(=O)C5CC5)c4)n3)cc2N2CCC(NCCF)CC2)cn1 [Example 129, 2-(1-(Cyclopropylsulfonyl)-1H-pyrazol-4-yl)-N-(4-(4-((2-fluoroethyl)amino)piperidin-1-yl)-5-((1-methyl-1H-pyrazol-4-yl)ethynyl)pyridin-2-yl)pyrimidin-4-amine] |
